The values that follow come from US12268694B2, “Combination pharmaceutical agents as RSV inhibitors” (Enanta Pharmaceuticals, Inc., priority 2017, dated 2025).

Some results are limits rather than exact numbers.

The first test deals with genotype A, "Long" strain RSV. The test can be described thus: RSV-A assay: CPE protection in HEp-2 cells, ATPlite readout. It counts as cell-based, human respiratory syncytial virus. The settings on record: HEp-2 cells, RSV-A Long strain, ATPlite readout; read-out: Human RSV-A (“Long” strain) EC50. An excerpt:
HEp-2 cells, (originally derived from tumors grown in irradiated-cortisonised weanling rats that had been injected with epidermoid carcinoma tissue from a person's larynx, but later found to be indistinguishable from HeLa cells by PCR DNA analysis), were used for the culturing of genotype A, “Long” strain RSV. Flasks were inoculated with RSV and viral stocks were collected once cytopathic effect (CPE) was greater than 90%. Viral stocks in 25% sucrose media were snap frozen using liquid nitrogen to increase viral stability. Viral stock titers were quantified by tissue culture infectious dose 50% (TCID50) using 8,000 cells per well and 3-fold viral dilutions across a 96-well plate, cultured for 4 days. Viral stock titers were also quantified by a plaque forming unit assay, as described elsewhere.
Following extensive parameter testing, the final assay is run as follows: HEp-2 cells are seeded into the inner 60 wells of a 96-well plate at 8,000 cells per well in a volume of 50 μL using Growth Media (DMEM without phenol red, 1% L-Glut, 1% Penn/Strep, 1% nonessential amino acids, 10% heat-inactivated FBS). 2-fold serial dilutions of control and test compounds are added to the wells in duplicate in a total volume of 25 μL. Viral stock is then added to the wells at a multiplicity of infection (MOI) of 0.1 in a volume of 25 μL, bringing the total volume of each well to 100 μL. The MOI is calculated using the PFU/mL, or TCID50 if unavailable. Each 96-well plate has a control column of 6 wells with cells and virus but no compound (negative control, max CPE), a column with cells but no compound or virus (positive control, minimum CPE), and a column with no cells or virus or compound (background plate/reagent control). The control wells with cells but no virus are given an additional 25 μL of growth media containing an equal quantity of sucrose as those wells receiving the viral stock in order to keep consistent in media and volume conditions. The outer wells of the plate are filled with 125 μL of moat media (DMEM, 1% Penn/Strep) to act as a thermal and evaporative moat around the test wells. Following a 5-day incubation period, the plates are read using ATPlite (50 μL added per well), which quantifies the amount of ATP (a measure of cell health) present in each well. Assay plates are read using the Envision luminometer. In parallel, cytotoxicity is examined on an additional 96-well plate treated in an identical manner, but substituting the 25 μL of viral stock for 25 μL of growth media. […] EC50 ranges are as follows: A <0.4 μM; B 0.4-0.8 μM; C >0.8 μM and CC50 ranges are as follows: A >50 μM; B 10-50 μM; C <10 μM.
(Cellular ATP, detected with luciferase, serves as a proxy for viable cell number.)
As for `O=C1Nc2ccccc2C(c2ccccc2)=N[C@H]1Nc1nnc(-c2cn(CC(F)(F)F)nc2N2CCOCC2)o1` [Example 488], the EC50 – broadly, the concentration giving half of the maximal effect – was < 0.4 µM. Same read-out and setting: to `O=C1Nc2ccccc2C(c2ccccc2)=N[C@H]1Nc1nnc(-c2nc(C(F)(F)F)sc2N2CCO[C@@H]3C[C@@H]32)o1` [Example 486] belongs > 0.8 µM; to `O=C1Nc2ccccc2C(c2ccccc2)=N[C@@H]1Nc1nnc(-c2cn(CC(F)(F)F)nc2N2CCOCC2)o1` [Example 489], > 0.8 µM; to `O=C1Nc2ccccc2C(c2ccccc2)=NC1Nc1nnc(-c2ncc(F)cc2N2CCOCC2)o1` (stereo not drawn) [Example 137], > 0.8 µM.

As for `O=C1Nc2ccccc2C(c2ccccc2)=N[C@@H]1Nc1nnc(-c2cn(CC3CC3)nc2N2CCOCC2)o1` [Example 446], the EC50 was < 0.4 µM.

The same test, now with this note: human respiratory syncytial virus, HEp-2, read-out: Human RSV-A (“Long” strain) EC50.
As for `O=C1Nc2ccccc2C(c2ccccc2)=N[C@@H]1Nc1nnc(-c2ncc(C(F)(F)F)cc2NC[C@@H]2CCCO2)o1` [Example 419], the EC50 is 0.4 to 0.8 µM. Still for that read-out and setting: to `O=C1Nc2ccccc2C(c2ccccc2)=NC1Nc1nnc(-c2ccc(NC3CCCCC3)cc2)o1` (stereo not drawn) [Example 116] belongs > 0.8 µM. On the same count and under the same terms, under `C[C@H]1CN(c2cc(C#N)cnc2-c2nnc(N[C@H]3N=C(c4ccccc4)c4ccccc4NC3=O)o2)CCO1` [Example 329] stands < 0.4 µM. On the same count and under the same terms, under `C[C@H]1COCCN1c1ncccc1-c1nnc(NC2N=C(c3ccccc3)c3ccccc3NC2=O)o1` (stereo partly drawn) [Example 261] stands > 0.8 µM; under `C[C@@H]1COCCN1c1cc(C#N)ccc1-c1nnc(N[C@H]2N=C(c3ccccc3)c3ccccc3NC2=O)o1` [Example 285], < 0.4 µM; under `CNc1cc(C(F)(F)F)cnc1-c1nnc(N[C@H]2N=C(c3ccccc3)c3ccccc3NC2=O)o1` [Example 307], > 0.8 µM. As for `O=C1Nc2ccccc2C(c2ccccc2)=N[C@@H]1Nc1nnc(-c2ccc(F)nc2N2CCOCC2)o1` [Example 151, (S)-3-((5-(6-fluoro-2-morpholinopyridin-3-yl)-1,3,4-oxadiazol-2-yl)amino)-5-phenyl-1,3-dihydro-2H-benzo[e][1,4]diazepin-2-one], the EC50 was < 0.4 µM.

`O=C1Nc2ccccc2C(c2ccccc2)=N[C@@H]1Nc1nnc(-c2cc3ccccc3nc2N2CCOCC2)o1` [Example 434]: the EC50 was < 0.4 µM. With `O=C1Nc2ccccc2C(c2ccccc2)=N[C@@H]1Nc1nnc(-c2nc(C(F)(F)F)sc2C2=CCOCC2)o1` [Example 453], the EC50 is < 0.4 µM. On the same count and under the same terms, under `COCCn1cc(-c2nnc(N[C@H]3N=C(c4ccccc4)c4ccccc4NC3=O)o2)c(N2CCOCC2)n1` [Example 402] stands < 0.4 µM; under `N#Cc1c[nH]c2cc(-c3nnc(N[C@H]4N=C(c5ccccc5)c5ccccc5NC4=O)o3)ccc12` [Example 291], > 0.8 µM. Same read-out and setting: to `COC[C@@H]1CCCN1c1sc(C(F)(F)F)nc1-c1nnc(N[C@H]2N=C(c3ccccc3)c3ccccc3NC2=O)o1` [Example 457] belongs > 0.8 µM. For the compound `C[C@@H]1CN(c2ncccc2-c2nnc(NC3N=C(c4ccccc4)c4ccccc4NC3=O)o2)CCO1` (stereo partly drawn) [Example 262], the EC50 was > 0.8 µM.

Regarding `O=C1Nc2ccccc2C(c2ccccc2)=N[C@@H]1Nc1nnc(-c2sc(Br)cc2N2CCOCC2)o1` [Example 182], the EC50 is < 0.4 µM. As for `Cc1nc(-c2nnc(N[C@H]3N=C(c4ccccc4)c4ccccc4NC3=O)o2)c(C2=CCOCC2)s1` [Example 345, (S)-3-((5-(5-(3,6-dihydro-2H-pyran-4-yl)-2-methylthiazol-4-yl)-1,3,4-oxadiazol-2-yl)amino)-5-phenyl-1,3-dihydro-2H-benzo[e][1,4]diazepin-2-one], the EC50 is < 0.4 µM. Same read-out and setting: to `Cc1cc(-c2nnc(N[C@H]3N=C(c4ccccc4)c4ccccc4NC3=O)o2)n(C2CCOCC2)n1` [Example 432] belongs > 0.8 µM; to `O=C1Nc2ccccc2C(c2ccccc2)=NC1Nc1nnc(-c2ncccc2N2CCOCC2)o1` (stereo not drawn) [Example 132], < 0.4 µM. On the same count and under the same terms, under `N#Cc1ccn2ncc(-c3nnc(N[C@H]4N=C(c5ccccc5)c5ccccc5NC4=O)o3)c2c1` [Example 441] stands > 0.8 µM; under `Cc1cc(-c2nnc(NC3N=C(c4ccccc4)c4ccccc4NC3=O)o2)ccc1N1CCOCC1` (stereo not drawn) [Example 113], 0.4 to 0.8 µM. Still for that read-out and setting: under `Cn1cc(-c2nnc(N[C@H]3N=C(c4ccccc4)c4ccccc4NC3=O)o2)c(N2CCOCC2)n1` [Example 181] stands < 0.4 µM; under `O=C1Nc2ccccc2C(c2ccccc2)=N[C@@H]1Nc1nnc(-c2ccnn2-c2ccccc2)o1` [Example 349], > 0.8 µM. Take `O=C1Nc2ccccc2C(c2ccccc2)=N[C@@H]1Nc1nnc(-c2ccc(N3C4CCC3COC4)cc2Cl)o1` [Example 244]: the EC50 is > 0.8 µM. Still for that read-out and setting: under `O=C1Nc2ccccc2C(c2ccccc2)=N[C@@H]1Nc1nnc(-c2ncc(C(F)(F)F)cc2N2CCOC3CC32)o1` (mixture of isomers) [Example 466] stands < 0.4 µM. The same measure, in the same setting: under `COCCNc1sc(C(F)(F)F)nc1-c1nnc(N[C@H]2N=C(c3ccccc3)c3ccccc3NC2=O)o1` [Example 473] stands < 0.4 µM; under `O=C1Nc2ccccc2C(c2ccccc2)=NC1Nc1nnc(-c2ccc(-n3cncn3)cc2)o1` (stereo not drawn) [Example 273], 0.4 to 0.8 µM; under `O=C1Nc2ccccc2C(c2ccccc2)=NC1Nc1nnc(-c2cccnc2N2CCCC(F)(F)C2)o1` (stereo not drawn) [Example 246], > 0.8 µM.

For `O=C1Nc2ccccc2C(c2ccccc2)=NC1Nc1nnc(-c2ccccc2N2CCS(=O)(=O)CC2)o1` (stereo not drawn) [Example 240], the EC50 is > 0.8 µM. Same read-out and setting: to `O=C1Nc2ccccc2C(c2ccccc2)=NC1Nc1nnc(-c2ccc(F)cc2)[nH]1` (stereo not drawn) [Example 363] belongs > 0.8 µM; to `CN1CCN(c2cc(C(F)(F)F)cnc2-c2nnc(N[C@H]3N=C(c4ccccc4)c4ccccc4NC3=O)o2)CC1` [Example 327], 0.4 to 0.8 µM; to `O=C1Nc2ccccc2C(c2ccccc2)=NC1Nc1nnc(-c2ccc(N3CCOCC3)cn2)o1` (stereo not drawn) [Example 114], > 0.8 µM.

In the case of `COCCNc1cc(C(F)(F)F)cnc1-c1nnc(N[C@H]2N=C(c3ccccc3)c3ccccc3NC2=O)o1` [Example 305], the EC50 is < 0.4 µM. On the same count and under the same terms, to `O=C1Nc2ccccc2C(c2ccccc2)=NC1Nc1nnc(-c2ccccc2C2=CCOCC2)o1` (stereo not drawn) [Example 353, 3-((5-(2-(3,6-dihydro-2H-pyran-4-yl)phenyl)-1,3,4-oxadiazol-2-yl)amino)-5-phenyl-1,3-dihydro-2H-benzo[e][1,4]diazepin-2-one] belongs > 0.8 µM; to `CC1(C)C[C@@H]1c1nnc(NC2N=C(c3ccccc3)c3ccccc3NC2=O)o1` (stereo partly drawn) [Example 205], > 0.8 µM; to `O=C1Nc2ccccc2C(c2ccccc2)=N[C@@H]1Nc1nnc(-c2ccc(N3CCOCC3)cc2)o1` [Example 124a], < 0.4 µM. The same measure, in the same setting: under `O=C1Nc2ccccc2C(c2ccccc2)=NC1Nc1nnc(-c2cnccc2N2CCCCC2)o1` (stereo not drawn) [Example 134] stands > 0.8 µM; under `O=C1Nc2ccccc2C(c2ccccc2)=N[C@@H]1Nc1nnc(-c2occc2N2CCOCC2)o1` [Example 348], < 0.4 µM; under `O=C1Nc2ccccc2C(c2ccccc2)=N[C@@H]1Nc1nnc(-c2nc(-c3ccc(F)cn3)sc2N2CCOCC2)o1` [Example 389], < 0.4 µM. On the same count and under the same terms, under `COCCNc1ccc(-c2nnc(NC3N=C(c4ccccc4)c4ccccc4NC3=O)o2)cc1` (stereo not drawn) [Example 117] stands > 0.8 µM; under `O=C1Nc2ccccc2C(c2ccccc2)=NC1Nc1ccc(-c2ccccc2N2CCOCC2)nn1` (stereo not drawn) [Example 378], > 0.8 µM. As to `N#Cc1cnc(-c2nnc(N[C@H]3N=C(c4ccccc4)c4ccccc4NC3=O)o2)c(N2CCOCC2)c1` [Example 325], the EC50 is < 0.4 µM. Take `O=C1Nc2ccccc2C(c2ccccc2)=NC1Nc1nnc(-c2ccncc2N2CCOCC2)o1` (stereo not drawn) [Example 142]: the EC50 lay within 0.4 to 0.8 µM. The same measure, in the same setting: under `O=C1Nc2ccccc2C(c2ccccc2)=N[C@@H]1Nc1nnc(-c2cnc(C3CC3)nc2N2CCOCC2)o1` [Example 167] stands < 0.4 µM. As for `O=C1Nc2ccccc2C(c2ccccc2)=NC1Nc1nnc(-c2ccc(C(F)(F)F)nc2N2CCOCC2)o1` (stereo not drawn) [Example 130], the EC50 lay within 0.4 to 0.8 µM. In the case of `Cc1cc(-c2nnc(NC3N=C(c4ccccc4)c4ccccc4NC3=O)o2)ccc1-n1cncn1` (stereo not drawn) [Example 217], the EC50 was in the range of 0.4 to 0.8 µM.

As to `O=C1Nc2ccccc2C(c2ccccc2)=NC1Nc1nnc(C2CCCC2)o1` (stereo not drawn) [Example 197], the EC50 was > 0.8 µM. On the same count and under the same terms, to `O=C1Nc2ccccc2C(c2ccc(F)cc2)=NC1Nc1nnc(-c2ccc(F)cc2)o1` (stereo not drawn) [Example 382] belongs > 0.8 µM.
